# Legend:
# [1] = test system: Rhodanobacter sp. FW104-10B01
# Method in brief: (§1)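 Growth was read as OD600 at 24 h, or at 48 h for R2A strain comparisons, after washed cells at a final OD600 of 0.02 (80 µL) were added to 384-well plates holding serially diluted inorganic ion salts or equimolar nitrilotriacetic acid complexes. Aerobic plates were shaken at 700 rpm at 30 °C, but anaerobic plates were not. IC50 was calculated with the drc R package from at least two biological replicate curves, scaled between water and growth-blocking antibiotic controls and excluding wells with precipitate.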
# [2] = test system: Pseudomonas fluorescens FW300-N2E2
# Method in brief: as §1
# [3] = medium / electron acceptor: 10B01 R2A/aerobic
# [4] = medium / electron acceptor: 10B01 R2A/nitrate
# [5] = medium / electron acceptor: N2E2 Glucose/aerobic
# [6] = medium / electron acceptor: N2E2 Glucose/aerobic 0.25xMinerals
# [7] = medium / electron acceptor: N2E2 Glucose/aerobic (2)
# [8] = medium / electron acceptor: N2E2 KB/aerobic
# [9] = medium / electron acceptor: N2E2 LB/aerobic
# [10] = medium / electron acceptor: N2E2 LB/aerobic (2)
# [11] = medium / electron acceptor: N2E2 LB/nitrate
# [12] = medium / electron acceptor: N2E2 Lactate/aerobic
# [13] = medium / electron acceptor: N2E2 R2A/aerobic
SMILES,"IC50 growth inhibition [1, 3] [mM]","IC50 growth inhibition [1, 4] [mM]","IC50 growth inhibition [2, 5] [mM]","IC50 growth inhibition [2, 6] [mM]","IC50 growth inhibition [2, 7] [mM]","IC50 growth inhibition [2, 8] [mM]","IC50 growth inhibition [2, 9] [mM]","IC50 growth inhibition [2, 10] [mM]","IC50 growth inhibition [2, 11] [mM]","IC50 growth inhibition [2, 12] [mM]","IC50 growth inhibition [2, 13] [mM]"
[I-].[Na+] [sodium iodide],354,319,59.4,> 500,107,304,330,354,125,124,237
O=S([O-])[O-].[Na+].[Na+] [sodium sulfite],> 500,2,0.261,0.391,0.45,< 0.244,7.58,1.7,1.12,< 0.244,31.7
OB1OB2OB(O)OB(O1)O2 [sodium tetraborate decahydrate],> 5,> 5,> 5,> 5,> 5,> 5,> 5,> 5,3.16,> 5,> 5

# From the supplement of paper PMC6461962
